{"source": "paper PMC8597734", "about": "(Antimicrobial Agents and Chemotherapy, 2021)", "key": {"[1]": {"test_system": "M. abscessus subsp. massiliense CCUG 48898T", "experiment": "microbe, parasite or virus in culture", "format": "cell-based, Mycobacterium abscessus", "conditions": "Mycobacteroides abscessus, 72 h"}, "[2]": {"test_system": "M. abscessus subsp. abscessus M337", "experiment": "microbe, parasite or virus in culture", "format": "cell-based, Mycobacterium abscessus", "conditions": "Mycobacteroides abscessus, 72 h"}, "M. abscessus Bamboo [3]": {"test_system": "M. abscessus Bamboo"}, "[4]": {"test_system": "M. abscessus subsp. abscessus K21", "experiment": "M. abscessus mouse infection model", "format": "in vivo, Mycobacterium abscessus", "conditions": "NOD SCID mice, intranasal infection, 400 mg/kg oral once daily for 10 days; statistically significant", "procedure": "In vivo efficacy determinations were carried out as described previously, using 8-week-old female NOD.CB17-Prkdc^scid/NCrCrl (NOD SCID) mice (Charles River Laboratories) and the M. abscessus subsp. abscessus K21 strain ([48]). Briefly, anesthetized animals were infected by intranasal delivery of ∼10^6 CFU of M. abscessus subsp. abscessus K21. Acute infection was achieved within 1 day. Drugs or the vehicle control was administered to NOD SCID mice once daily for 10 consecutive days by oral gavage, starting from 1 day postinfection. Clarithromycin was formulated in 0.4% methyl cellulose–sterile water and administered at a dose of 250 mg/kg. […] EC/11716 was formulated in 0.4% methyl cellulose–sterile water and administered at 400 mg/kg. All mice were euthanized 24 h after the last dose (11 days postinfection), and their lungs and spleen were aseptically removed prior to homogenization. The bacterial load in these organs was determined by plating serial dilutions of the organ homogenates onto Middlebrook 7H11 agar (BD Difco) supplemented with 0.2% (vol/vol) glycerol and 10% (vol/vol) OADC. The agar plates were incubated for 5 days at 37°C prior to counting of colonies. All studies were conducted in accordance with the GSK Policy on the Care, Welfare and Treatment of Laboratory Animals and were reviewed the Institutional Animal Care and Use Committee either at GSK or by the ethical review process at the institution where the work was performed. All experiments involving live animals were approved by the Institutional Animal Care and Use Committee of the Center for Discovery and Innovation, Hackensack Meridian Health."}, "[5]": {"test_system": "M. abscessus Bamboo RM2 (GyrA D91N)", "experiment": "microbe, parasite or virus in culture", "format": "cell-based, Mycobacterium abscessus"}, "[6]": {"experiment": "Mouse oral pharmacokinetics", "format": "in vivo", "conditions": "for concentration at 24 h / AUC(0-t) / half-life: female; for concentration at 24 h: CD-1, mouse, below limit of quantitation (LOQ), read-out: plasma concentration at the 24h time point; for AUC(0-t) / half-life: mouse", "procedure": "All animal studies were ethically reviewed and carried out in accordance with the Institutional Animal Care and Use Committee of Hackensack Meridian Health. Six-week-old CD-1 female mice (20–25 g) were used in pharmacokinetic studies. Groups of 3 mice received a single oral dose of EC/11716 formulated in 0.4% methylcellulose, at either 50, 200 or 400 mg/kg. Aliquots of 20 μl of blood were collected from the lateral tail vein by serial puncture from each mouse at 0.5, 1, 3, 5, 7 and 24h post dose in K2EDTA tubes. Plasma was recovered after centrifugation and stored at −80°C until analyzed by high pressure liquid chromatography coupled to tandem mass spectrometry.\nNeat 1 mg/ml DMSO stocks of EC/11716 were serial diluted in 50/50 Acetonitrile water to create standard curves and quality control spiking solutions. Standards and QCs were created by adding 10μls of spiking solutions to 90μls of drug free plasma (CD-1 K2EDTA Mouse, Bioreclamation IVT). 10μls of control, standard, QC, or study sample were added to 100 μl of Acetonitrile/Methanol 50/50 protein precipitation solvent containing 10 ng/ml of the internal standard Verapamil (Sigma-Aldrich). Extracts were vortexed for 5 min and centrifuged at 4000 RPM for 5 min. 75 μl of supernatant was transferred for HPLC-MS/MS analysis and diluted with 75 μl of Milli-Q deionized water.\nLC-MS/MS analysis was performed on a Sciex Applied Biosystems Qtrap 6500+ triple-quadrupole mass spectrometer coupled to a Shimadzu Nexera X2 UHPLC system to quantify each drug in plasma. Chromatography was performed on a Phenomenex Luna Omega column (2.1 × 100 mm; particle size, 3 μm) using a reverse phase gradient. Milli-Q deionized water with 0.1% formic acid was used for the aqueous mobile phase and 0.1% formic acid in acetonitrile for the organic mobile phase. Multiple-reaction monitoring of parent/daughter transitions in electrospray positive-ionization mode was used to quantify the analytes. The following MRM transitions were used for EC/11716 (458.09/203.10) and Verapamil (455.40/165.00). Sample analysis was accepted if the concentrations of the quality control samples were within 20% of the nominal concentration. Data processing was performed using Analyst software (version 1.6.2; Applied Biosystems Sciex)."}, "M. abscessus Bamboo [7]": {"test_system": "M. abscessus Bamboo", "experiment": "microbe, parasite or virus in culture", "format": "cell-based, Mycobacterium abscessus", "conditions": "Mycobacteroides abscessus, 72 h"}, "human serum albumin": {"biological_target": "T1, human serum albumin (Homo sapiens, UniProt P02768)", "T1 construct": "purchased Chiral Technologies Ltd., France", "T1 sequence (P02768 25-609)": "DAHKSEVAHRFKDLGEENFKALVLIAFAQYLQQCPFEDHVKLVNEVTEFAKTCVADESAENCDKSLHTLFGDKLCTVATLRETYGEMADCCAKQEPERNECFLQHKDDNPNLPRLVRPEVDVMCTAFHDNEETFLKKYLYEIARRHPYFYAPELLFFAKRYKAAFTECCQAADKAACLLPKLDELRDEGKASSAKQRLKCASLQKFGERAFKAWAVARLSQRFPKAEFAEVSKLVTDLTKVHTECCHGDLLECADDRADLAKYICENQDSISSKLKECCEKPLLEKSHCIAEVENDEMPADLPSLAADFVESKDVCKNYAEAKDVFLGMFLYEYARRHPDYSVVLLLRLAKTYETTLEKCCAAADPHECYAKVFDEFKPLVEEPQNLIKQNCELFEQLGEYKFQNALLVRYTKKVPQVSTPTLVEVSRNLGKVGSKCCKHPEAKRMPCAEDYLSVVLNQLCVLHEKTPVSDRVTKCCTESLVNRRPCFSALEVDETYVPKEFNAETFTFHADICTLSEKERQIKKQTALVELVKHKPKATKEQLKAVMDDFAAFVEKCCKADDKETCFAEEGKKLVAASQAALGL", "experiment": "Drug binding to human serum albumin (HSA HPLC column)", "format": "in vitro ADME", "conditions": "immobilized human serum albumin HPLC column, pH 7.4, read-out: Protein binding (converted)"}, "[8]": {"experiment": "Stability in microsomes (intrinsic clearance)", "format": "in vitro ADME, mouse", "procedure": "Intrinsic clearance (CLi) values were determined in mouse and human liver microsomes. Test compounds (final concentration 0.5 μM) were incubated at 37°C for 30 min in 50 mM potassium phosphate buffer (pH 7.4) containing 0.5 mg microsomal protein/ml. The reaction was started by addition of cofactor NADPH. At 10 different time points (from zero to 30 min) an aliquot (90 μl) was taken, quenched with acetonitrile-methanol containing an appropriate internal standard, centrifuged and analyzed by LC-MS/MS. The intrinsic clearance (CLi) was determined using the following equation: CLi=k*(ml of incubation/mg microsomal protein)*(mg microsomal protein/g liver)\nWhere k is the turn-over rate constant of the ln (% remaining compound) versus time regression and mg microsomal protein/g liver is 52.5 for both mouse and human."}, "[9]": {"test_system": "M. abscessus subsp. massiliense M111", "experiment": "microbe, parasite or virus in culture", "format": "cell-based, Mycobacterium abscessus", "conditions": "Mycobacteroides abscessus, 72 h"}, "Tolerability in mice": {"experiment": "Tolerability in mice", "format": "in vivo, mouse", "conditions": "tolerated at doses up to"}, "[10]": {"test_system": "M. abscessus subsp. abscessus M404", "experiment": "microbe, parasite or virus in culture", "format": "cell-based, Mycobacterium abscessus", "conditions": "Mycobacteroides abscessus, 72 h"}, "[11]": {"conditions": "mice, oral 400 mg/kg, from PK profiles and potency data"}}, "note": "Like-named read-outs stand apart in the source and are kept apart here.", "data": [{"smiles": "COc1cnc2ccc(=O)n(CCN3CCC(NCc4cnc(CO)c(Cl)c4)CC3)c2c1", "note": "[EC/11716]", "values": [{"measurement": "MIC", "setting": "[1]", "value": 4.7, "unit": "µM"}, {"measurement": "MIC", "setting": "[2]", "value": 2.4, "unit": "µM"}, {"measurement": "frequency of resistance", "setting": "M. abscessus Bamboo [3]", "value": "1.8 × 10^−8 /CFU"}, {"measurement": "reduction in lung CFU", "setting": "[4]", "value": 1, "unit": "log"}, {"measurement": "MIC", "setting": "[5]", "value": ">100", "unit": "µM"}, {"measurement": "MIC", "setting": "[5]; Mycobacteroides abscessus", "value": "> 100", "unit": "µM"}, {"measurement": "DNAUC[0-24]_50 mg/kg", "setting": "[6]; CD-1 mice, oral 50 mg/kg, dose-normalized AUC, mean (SD)", "value": "58 (16) ng*h/ml per mg/kg"}, {"measurement": "Tmax_50 mg/kg", "setting": "[6]; CD-1 mice, oral 50 mg/kg, range of values", "value": "0.5 to 1.0", "unit": "h"}, {"measurement": "DNAUC[0-24]_200 mg/kg", "setting": "[6]; CD-1 mice, oral 200 mg/kg, dose-normalized AUC, mean (SD)", "value": "167 (24) ng*h/ml per mg/kg"}, {"measurement": "Tmax_200 mg/kg", "setting": "[6]; CD-1 mice, oral 200 mg/kg, range of values", "value": "0.5−1.0 h"}, {"measurement": "DNAUC[0-24]_400 mg/kg", "setting": "[6]; CD-1 mice, oral 400 mg/kg, dose-normalized AUC, mean (SD)", "value": "202 (8) ng*h/ml per mg/kg"}, {"measurement": "Tmax_400 mg/kg", "setting": "[6]; CD-1 mice, oral 400 mg/kg, range of values", "value": "0.5 to 1.0", "unit": "h"}, {"measurement": "Cmax_50 mg/kg", "setting": "[6]; CD-1 mice, single oral dose 50 mg/kg, plasma, mean (SD)", "value": "632 (430) ng/ml"}, {"measurement": "Cmax_200 mg/kg", "setting": "[6]; CD-1 mice, single oral dose 200 mg/kg, plasma, mean (SD)", "value": "7,177 (618) ng/ml"}, {"measurement": "Cmax_400 mg/kg", "setting": "[6]; CD-1 mice, single oral dose 400 mg/kg, plasma, mean (SD)", "value": "16,767 (8,281) ng/ml"}, {"measurement": "concentration at 24 h", "setting": "[6]; plasma, mice, oral 50 mg/kg", "value": "< 20", "unit": "ng/mL"}, {"measurement": "concentration at 24 h", "setting": "[6]; plasma, mice, oral 200 mg/kg", "value": "< 20", "unit": "ng/mL"}, {"measurement": "AUC(0-t)", "setting": "[6]; plasma, CD-1 mice, oral 50 mg/kg, mean (SD), read-out: AUC[0-24]_50 mg/kg", "value": 2900, "unit": "ng·h/mL"}, {"measurement": "half-life", "setting": "[6]; plasma, CD-1 mice, oral 50 mg/kg, mean (SD), read-out: Elimination T1/2 _50 mg/kg (converted)", "value": 2.7, "unit": "h"}, {"measurement": "AUC(0-t)", "setting": "[6]; plasma, CD-1 mice, oral 200 mg/kg, mean (SD), read-out: AUC[0-24]_200 mg/kg", "value": 33400, "unit": "ng·h/mL"}, {"measurement": "half-life", "setting": "[6]; plasma, CD-1 mice, oral 200 mg/kg, mean (SD), read-out: Elimination T1/2 _200 mg/kg (converted)", "value": 1.7, "unit": "h"}, {"measurement": "AUC(0-t)", "setting": "[6]; plasma, CD-1 mice, oral 400 mg/kg, mean (SD), read-out: AUC[0-24]_400 mg/kg", "value": 80700, "unit": "ng·h/mL"}, {"measurement": "half-life", "setting": "[6]; plasma, CD-1 mice, oral 400 mg/kg, mean (SD), read-out: Elimination T1/2 _400 mg/kg (converted)", "value": 3.6, "unit": "h"}, {"measurement": "time above MIC of M. abscessus K21 planktonic cultures", "setting": "[6]; [11]", "value": 67, "unit": "%"}, {"measurement": "time above MIC of M. abscessus biofilms", "setting": "[6]; [11]", "value": "greater than 70%"}, {"measurement": "MIC", "setting": "M. abscessus Bamboo [7]", "value": 2.5, "unit": "µM"}, {"measurement": "fraction unbound", "setting": "human serum albumin", "value": 0.505}, {"measurement": "Mouse In vitro CLint", "setting": "[8]; mouse hepatic microsomes, free base form", "value": 1.6, "unit": "ml/min/g tissue"}, {"measurement": "mouse microsomal clearance", "setting": "[8]; mouse microsomes", "value": 1.6, "unit": "ml/min/g protein"}, {"measurement": "MIC", "setting": "[9]", "value": 4.9, "unit": "µM"}, {"measurement": "tolerated dose", "setting": "Tolerability in mice", "value": "up to 550 mg/kg"}, {"measurement": "MIC", "setting": "[10]", "value": 2.6, "unit": "µM"}]}]}
